Legend:
Format in all cases: in vivo
Scirpus juncoides = experiment: Test Example 2: herbicidal activity, application during weed generation in submerged conditions; conditions: Eighteenth Table; application herbicide amount 320 g/ha
Summary of the method: (§1)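 Mixed sowings in flooded alluvial soil (4 cm water), greenhouse 25-30 °C; emulsifiable concentrate diluted in water applied to the water surface at the 1-2 leaf stage, rate in g/ha. Effect scored three weeks later on a 0-5 scale (5 = ≥90% herbicidal ratio, 0 = ≤5%).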

Monochoria vaginalis = experiment: as above; conditions: Eighteenth Table; application herbicide amount 320 g/ha
Summary of the method: as §1

[1] = test system: Echinochloa oryzacola Vasing.; experiment: as above; conditions: Eighteenth Table; application herbicide amount 320 g/ha
Summary of the method: as §1

[2] = test system: directly sowed Oryza sativa; experiment: Test Example 4: effect on crop by application to foliage (diluvial soil, plastic box); conditions: for b: effect on crop, directly sowed Oryza sativa / effect on crop, d (directly sowed Oryza sativa): application to foliage; for b: effect on crop, directly sowed Oryza sativa: application herbicide amount 320 g/ha
Summary of the method: (§2)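 Plants were grown in sterilized diluvial soil in a greenhouse at 25-30° C for 14 days, then sprayed on stems and leaves with water-diluted emulsion formulation at set rates in g/ha. Weed control and crop injury were scored 3 weeks after treatment on a 0-5 herbicidal-ratio scale, from 0 (≤5%) to 5 (≥90%).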

Glycine max = experiment: as above; conditions: for d: effect on crop, Glycine max / effect on crop, c (Glycine max): application to foliage; for d: effect on crop, Glycine max: application herbicide amount 320 g/ha
Summary of the method: as §2

Zea mays = experiment: as above; conditions: for c: effect on crop, Zea mays: application to foliage, application herbicide amount 320 g/ha
Summary of the method: as §2

Brassica campestris L. = experiment: as above; conditions: for g: effect on crop, Brassica campestris L. / effect on crop, g (Brassica campestris L.): application to foliage; for g: effect on crop, Brassica campestris L.: application herbicide amount 320 g/ha
Summary of the method: as §2

[3] = test system: Beta vulgaris ssp. vulgaris; experiment: as above; conditions: for f: effect on crop, Beta vulgaris ssp. vulgaris / effect on crop, f (Beta vulgaris ssp. vulgaris): application to foliage; for f: effect on crop, Beta vulgaris ssp. vulgaris: application herbicide amount 320 g/ha
Summary of the method: as §2

Triticum aestivum = experiment: as above; conditions: for e: effect on crop, Triticum aestivum / effect on crop, e (Triticum aestivum): application to foliage; for e: effect on crop, Triticum aestivum: application herbicide amount 320 g/ha
Summary of the method: as §2

| Compound | B (Scirpus juncoides) herbicidal ratio grade (Scirpus juncoides) | C (Monochoria vaginalis) herbicidal ratio grade (Monochoria vaginalis) | A (Echinochloa oryzicola Vasing.) herbicidal ratio grade [1] | b: effect on crop, directly sowed Oryza sativa [2] | d: effect on crop, Glycine max (Glycine max) | c: effect on crop, Zea mays (Zea mays) | g: effect on crop, Brassica campestris L. (Brassica campestris L.) | f: effect on crop, Beta vulgaris ssp. vulgaris [3] | e: effect on crop, Triticum aestivum (Triticum aestivum) | d (directly sowed Oryza sativa) effect on crop grade ([2]; foliage application, 320 g/ha) | c (Glycine max) effect on crop grade (Glycine max; foliage application, 320 g/ha) | b (Zea mays) effect on crop grade (Zea mays; foliage application, 320 g/ha) | g (Brassica campestris L.) effect on crop grade (Brassica campestris L.; foliage application, 320 g/ha) | f (Beta vulgaris ssp. vulgaris) effect on crop grade ([3]; foliage application, 320 g/ha) | e (Triticum aestivum) effect on crop grade (Triticum aestivum; foliage application, 320 g/ha) | effect on crop, d (directly sowed Oryza sativa) ([2]; 320 g/ha) | effect on crop, c (Glycine max) (Glycine max; 320 g/ha) | effect on crop, g (Brassica campestris L.) (Brassica campestris L.; 320 g/ha) | effect on crop, f (Beta vulgaris ssp. vulgaris) ([3]; 320 g/ha) | effect on crop, e (Triticum aestivum) (Triticum aestivum; 320 g/ha) |
| --- | --- | --- | --- | --- | --- | --- | --- | --- | --- | --- | --- | --- | --- | --- | --- | --- | --- | --- | --- | --- |
| Cc1nnc(NC(=O)c2ccc(C(F)(F)F)n3c(SC4CCCC4)nnc23)o1 [1-154] | 2 (Herbicidal ratio of 20% or more and less than 40%) | 0 (Herbicidal ratio of 5% or less (almost no effect)) | 0 (Herbicidal ratio of 5% or less (almost no effect)) | 0 (Herbicidal ratio of 5% or less (almost no effect)) | 2 (Herbicidal ratio of 20% or more and less than 40%) | 0 (Herbicidal ratio of 5% or less (almost no effect)) | 0 (Herbicidal ratio of 5% or less (almost no effect)) | 4 (Herbicidal ratio of 70% or more and less than 90%) | 0 (Herbicidal ratio of 5% or less (almost no effect)) | – | – | – | – | – | – | – | – | – | – | – |
| O=C(Nc1nnco1)c1ccc(C(F)(F)F)n2c(SC3CCCC3)nnc12 [1-155] | 2 (Herbicidal ratio of 20% or more and less than 40%) | 0 (Herbicidal ratio of 5% or less (almost no effect)) | 1 (Herbicidal ratio of 5% or more and less than 20%) | 0 (Herbicidal ratio of 5% or less (almost no effect)) | 3 (Herbicidal ratio of 40% or more and less than 70%) | 0 (Herbicidal ratio of 5% or less (almost no effect)) | 0 (Herbicidal ratio of 5% or less (almost no effect)) | 5 (Herbicidal ratio of 90% or more (almost completely withered)) | 0 (Herbicidal ratio of 5% or less (almost no effect)) | – | – | – | – | – | – | – | – | – | – | – |
| Cc1nnc(NC(=O)c2ccc(C(F)(F)F)n3c(SCc4ccc(Cl)nc4)nnc23)o1 [1-156] | 3 (Herbicidal ratio of 40% or more and less than 70%) | 2 (Herbicidal ratio of 20% or more and less than 40%) | 0 (Herbicidal ratio of 5% or less (almost no effect)) | 0 (Herbicidal ratio of 5% or less (almost no effect)) | 3 (Herbicidal ratio of 40% or more and less than 70%) | 0 (Herbicidal ratio of 5% or less (almost no effect)) | 0 (Herbicidal ratio of 5% or less (almost no effect)) | 3 (Herbicidal ratio of 40% or more and less than 70%) | 1 (Herbicidal ratio of 5% or more and less than 20%) | – | – | – | – | – | – | – | – | – | – | – |
| O=C(Nc1nnco1)c1ccc(C(F)(F)F)n2c(SCc3ccc(Cl)nc3)nnc12 [1-157] | 1 (Herbicidal ratio of 5% or more and less than 20%) | 0 (Herbicidal ratio of 5% or less (almost no effect)) | 0 (Herbicidal ratio of 5% or less (almost no effect)) | 0 (Herbicidal ratio of 5% or less (almost no effect)) | 3 (Herbicidal ratio of 40% or more and less than 70%) | 0 (Herbicidal ratio of 5% or less (almost no effect)) | 2 (Herbicidal ratio of 20% or more and less than 40%) | 4 (Herbicidal ratio of 70% or more and less than 90%) | 1 (Herbicidal ratio of 5% or more and less than 20%) | – | – | – | – | – | – | – | – | – | – | – |
| C=CCN(C)c1nnc2c(C(=O)Nc3nnco3)ccc(C(F)(F)F)n12 [1-172] | 4 (Herbicidal ratio of 70% or more and less than 90%) | 3 (Herbicidal ratio of 40% or more and less than 70%) | 3 (Herbicidal ratio of 40% or more and less than 70%) | 3 (Herbicidal ratio of 40% or more and less than 70%) | 4 (Herbicidal ratio of 70% or more and less than 90%) | 0 (Herbicidal ratio of 5% or less (almost no effect)) | 4 (Herbicidal ratio of 70% or more and less than 90%) | 5 (Herbicidal ratio of 90% or more (almost completely withered)) | 1 (Herbicidal ratio of 5% or more and less than 20%) | – | – | – | – | – | – | – | – | – | – | – |
| Cn1nnnc1NC(=O)c1ccc(C(F)(F)F)n2cnnc12 [2-001] | 2 (Herbicidal ratio of 20% or more and less than 40%) | 3 (Herbicidal ratio of 40% or more and less than 70%) | 2 (Herbicidal ratio of 20% or more and less than 40%) | 0 (Herbicidal ratio of 5% or less (almost no effect)) | 2 (Herbicidal ratio of 20% or more and less than 40%) | 0 (Herbicidal ratio of 5% or less (almost no effect)) | 4 (Herbicidal ratio of 70% or more and less than 90%) | 5 (Herbicidal ratio of 90% or more (almost completely withered)) | 0 (Herbicidal ratio of 5% or less (almost no effect)) | – | – | – | – | – | – | – | – | – | – | – |
| Cc1nnc2c(C(=O)Nc3nnnn3C)ccc(C(F)(F)F)n12 [2-002] | 1 (Herbicidal ratio of 5% or more and less than 20%) | 2 (Herbicidal ratio of 20% or more and less than 40%) | 2 (Herbicidal ratio of 20% or more and less than 40%) | 2 (Herbicidal ratio of 20% or more and less than 40%) | 3 (Herbicidal ratio of 40% or more and less than 70%) | 0 (Herbicidal ratio of 5% or less (almost no effect)) | 4 (Herbicidal ratio of 70% or more and less than 90%) | 5 (Herbicidal ratio of 90% or more (almost completely withered)) | 1 (Herbicidal ratio of 5% or more and less than 20%) | – | – | – | – | – | – | – | – | – | – | – |
| CC(C)c1nnc2c(C(=O)Nc3nnnn3C)ccc(C(F)(F)F)n12 [2-003] | 3 (Herbicidal ratio of 40% or more and less than 70%) | 4 (Herbicidal ratio of 70% or more and less than 90%) | 5 (Herbicidal ratio of 90% or more (almost completely withered)) | 4 (Herbicidal ratio of 70% or more and less than 90%) | 4 (Herbicidal ratio of 70% or more and less than 90%) | 1 (Herbicidal ratio of 5% or more and less than 20%) | 5 (Herbicidal ratio of 90% or more (almost completely withered)) | 5 (Herbicidal ratio of 90% or more (almost completely withered)) | 3 (Herbicidal ratio of 40% or more and less than 70%) | – | – | – | – | – | – | – | – | – | – | – |
| Cn1nnnc1NC(=O)c1ccc(C(F)(F)F)n2c(CS(C)(=O)=O)nnc12 [2-034] | 4 (Herbicidal ratio of 70% or more and less than 90%) | 4 (Herbicidal ratio of 70% or more and less than 90%) | 5 (Herbicidal ratio of 90% or more (almost completely withered)) | – | – | – | – | – | – | 5 (Herbicidal ratio of 90% or more (almost completely withered)) | 3 (Herbicidal ratio of 40% or more and less than 70%) | 5 (Herbicidal ratio of 90% or more (almost completely withered)) | 5 (Herbicidal ratio of 90% or more (almost completely withered)) | 5 (Herbicidal ratio of 90% or more (almost completely withered)) | 5 (Herbicidal ratio of 90% or more (almost completely withered)) | – | – | – | – | – |
| Cn1nnnc1NC(=O)c1ccc(C(F)(F)F)n2c(SCC(F)(F)F)nnc12 [2-087] | 4 (Herbicidal ratio of 70% or more and less than 90%) | 3 (Herbicidal ratio of 40% or more and less than 70%) | 4 (Herbicidal ratio of 70% or more and less than 90%) | – | – | – | – | – | – | – | – | – | – | – | – | 3 (Herbicidal ratio of 40% or more and less than 70%) | 0 (Herbicidal ratio of 5% or less (almost no effect)) | 3 (Herbicidal ratio of 40% or more and less than 70%) | 5 (Herbicidal ratio of 90% or more (almost completely withered)) | 2 (Herbicidal ratio of 20% or more and less than 40%) |
| CCN(CC)c1nnc2c(C(=O)Nc3nnnn3C)ccc(C(F)(F)F)n12 [2-089] | 4 (Herbicidal ratio of 70% or more and less than 90%) | 5 (Herbicidal ratio of 90% or more (almost completely withered)) | 4 (Herbicidal ratio of 70% or more and less than 90%) | – | – | – | – | – | – | – | – | – | – | – | – | 4 (Herbicidal ratio of 70% or more and less than 90%) | 0 (Herbicidal ratio of 5% or less (almost no effect)) | 4 (Herbicidal ratio of 70% or more and less than 90%) | 5 (Herbicidal ratio of 90% or more (almost completely withered)) | 0 (Herbicidal ratio of 5% or less (almost no effect)) |

From patent US9708314B2, “Heterocyclic amide compound” (NISSAN CHEMICAL INDUSTRIES, LTD., priority 2013, dated 2017)
